The record followed here is patent US7897765B2, “Therapeutic compounds and uses thereof” (Elixir Pharmaceuticals, Inc., priority 2003, dated 2011).

For the first assay, the target named is GHS-R (Homo sapiens, UniProt Q92847). Put plainly: cell based assay of GHS-R antagonist/agonist activity. Also noted: key: A refers to a compound having antagonist activity with Ki<100 nM in a cell based assay; B refers to a compound having agonist activity with EC50<100 nM in a cell based assay; C refers to a compound having antagonist activity of Ki>100 nM and <1500 nM in a cell based assay; D refers to a compound having antagonist activity with Ki, <100 nM and agonist activity with EC50<100 nM in a cell-based assay; E refers to other exemplary compounds. The following applies: GHS-R antagonist Ki and/or agonist EC50 class. In short, it runs like this: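 COS-7 cells transfected with GHS-R, labelled with [3H]-myo-inositol, preincubated in 10 mM LiCl buffer pH 7.4, then given compound 45 min at 37 °C; [3H]-IP isolated by anion exchange. Alternatively, CREB-luciferase reporter in transfected HEK293 with 5 h compound exposure. IC50/EC50 by nonlinear regression.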
Sequence of GHS-R (Q92847 whole entry, species assumed): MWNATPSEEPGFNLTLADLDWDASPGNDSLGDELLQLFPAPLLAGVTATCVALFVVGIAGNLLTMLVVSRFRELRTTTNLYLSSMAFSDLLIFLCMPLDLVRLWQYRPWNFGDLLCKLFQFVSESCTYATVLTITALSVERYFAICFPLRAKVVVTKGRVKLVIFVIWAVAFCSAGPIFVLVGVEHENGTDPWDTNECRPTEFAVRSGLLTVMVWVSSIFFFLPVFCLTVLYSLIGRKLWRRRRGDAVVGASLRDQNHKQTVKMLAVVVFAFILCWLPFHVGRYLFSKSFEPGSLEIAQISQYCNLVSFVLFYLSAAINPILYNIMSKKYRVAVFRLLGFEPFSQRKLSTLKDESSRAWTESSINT
In the case of `CC(C)NCCS(=O)(=O)N[C@H](COCc1ccccc1)C(=O)N1CCC2(CC1)CN(S(C)(=O)=O)c1ccccc12` [Compound 146], the Activity result was “C (C refers to a compound having antagonist activity of Ki>100 nM and <1500 nM in a cell based assay)”.
On the same count and under the same terms, to `C=CS(=O)(=O)N[C@H](COCc1ccccc1)C(=O)N1CCC2(CC1)CN(S(C)(=O)=O)c1ccccc12` [Compound 147] belongs “E”.
For `CC(C)NCCCS(=O)(=O)N[C@H](COCc1ccccc1)C(=O)N1CCC2(CC1)CN(S(C)(=O)=O)c1ccccc12` [Compound 148], the Activity entry is recorded as “A (A refers to a compound having antagonist activity with Ki<100 nM in a cell based assay)”.
In the case of `CS(=O)(=O)N1CC2(CCN(C(=O)[C@@H](COCc3ccccc3)NS(=O)(=O)CCCN3CCOCC3)CC2)c2ccccc21` [Compound 149], the Activity entry was “E”.
Turning to `CC(C)(C)NCCCS(=O)(=O)N[C@H](COCc1ccccc1)C(=O)N1CCC2(CC1)CN(S(C)(=O)=O)c1ccccc12` [Compound 150], the Activity entry was “A (A refers to a compound having antagonist activity with Ki<100 nM in a cell based assay)”.
As to `CS(=O)(=O)N1CC2(CCN(C(=O)[C@@H](COCc3ccccc3)NS(=O)(=O)CCN3C4CCCC3CC4)CC2)c2ccccc21` [Compound 151], the Activity entry was “C (C refers to a compound having antagonist activity of Ki>100 nM and <1500 nM in a cell based assay)”.
Take `CN1C2CCC1CC(S(=O)(=O)N[C@H](COCc1ccccc1)C(=O)N1CCC3(CC1)CN(S(C)(=O)=O)c1ccccc13)C2` (some centres unmarked) [Compound 152]: the Activity entry was “C (C refers to a compound having antagonist activity of Ki>100 nM and <1500 nM in a cell based assay)”.
`CS(=O)(=O)N1CC2(CCN(C(=O)[C@@H](COCc3ccccc3)NS(=O)(=O)CCCCl)CC2)c2ccccc21` [Compound 153]: the Activity entry is reported as “A (A refers to a compound having antagonist activity with Ki<100 nM in a cell based assay)”.
For `CN1CCC(S(=O)(=O)N[C@H](COCc2ccccc2)C(=O)N2CCC3(C=Cc4ccccc43)CC2)CC1` [Compound 154], the Activity entry was “C (C refers to a compound having antagonist activity of Ki>100 nM and <1500 nM in a cell based assay)”.
For the compound `CCN(CC)CCCS(=O)(=O)N[C@H](COCc1ccccc1)C(=O)N1CCC2(CC1)CN(S(C)(=O)=O)c1ccccc12` [Compound 155], the Activity entry is given as “A (A refers to a compound having antagonist activity with Ki<100 nM in a cell based assay)”.
`CN(C)CCCS(=O)(=O)N[C@H](COCc1ccccc1)C(=O)N1CCC2(CC1)CN(S(C)(=O)=O)c1ccccc12` [Compound 156]: the Activity result was “E”.
On to `CS(=O)(=O)N1CC2(CCN(C(=O)[C@@H](COCc3ccccc3)NS(=O)(=O)CCCNC3CC3)CC2)c2ccccc21` [Compound 157], for which the Activity entry is “E”.
With `CS(=O)(=O)N1CC2(CCN(C(=O)[C@@H](COCc3ccccc3)N3CCCS3(=O)=O)CC2)c2ccccc21` [Compound 158], the Activity result is listed as “E”.
In the case of `CS(=O)(=O)N1CC2(CCN(C(=O)[C@@H](COCc3ccccc3)NS(=O)(=O)CCCN3CCCC3)CC2)c2ccccc21` [Compound 159], the Activity result is given as “A (A refers to a compound having antagonist activity with Ki<100 nM in a cell based assay)”.
For the compound `CN([C@H](COCc1ccccc1)C(=O)N1CCC2(CC1)CN(S(C)(=O)=O)c1ccccc12)S(=O)(=O)CCCCl` [Compound 160], the Activity result is on record as “E”.
For `COCCCS(=O)(=O)N[C@H](COCc1ccccc1)C(=O)N1CCC2(CC1)CN(S(C)(=O)=O)c1ccccc12` [Compound 161], the Activity entry is “E”.
The same measure, in the same setting: the value for `CCN(CC)CCCS(=O)(=O)N(C)[C@H](COCc1ccccc1)C(=O)N1CCC2(CC1)CN(S(C)(=O)=O)c1ccccc12` [Compound 162] was “A (A refers to a compound having antagonist activity with Ki<100 nM in a cell based assay)”.
Consider `CCN(CC)CCCS(=O)(=O)N[C@H](CCc1ccccc1)C(=O)N1CCC2(CC1)CN(S(C)(=O)=O)c1ccccc12` [Compound 163], for which the Activity result is “A (A refers to a compound having antagonist activity with Ki<100 nM in a cell based assay)”.
Consider `CCN(CC)CCCS(=O)(=O)N[C@H](COCc1ccccc1)C(=O)N1CCC2(C=Cc3ccccc32)CC1` [Compound 164], for which the Activity entry is recorded as “A (A refers to a compound having antagonist activity with Ki<100 nM in a cell based assay)”.

The test system of another assay is male C57BL/6J mice. Kind of assay: fast-refeed (refeeding) assay, food intake. The format is in vivo.
Details: not given
How it is done:
Food is removed at 6 pm for an overnight (˜16 hour) fast. Beginning at 10 am on the next morning, mice are administered with either vehicle (e.g., saline+acetic acid, pH=5) or the compound of interest. Mice are then returned to their home cages and pre-weighed food (approximately 90 grams) is immediately returned to the food hoppers in each cage. The weight of the food remaining in the food hoppers is measured at 30 minutes, 1 hour, 2 hours, and 4 hours post compound/vehicle administration. Final body weights are then recorded for the mice.
Animals: For this particular experiment, male C57BL/6J mice (Vendor: Taconic; Age: 7 weeks; Weight Range: 19-25 g) were used. The animals were housed individually during acclimation to facility (3-5 days) and throughout the study. […]
• Mice were weighed and sorted into groups based on Body Weight. • Food was removed at 6 pm for an overnight (˜16 hour) fast. […] After injections mice were returned to their home cages. • Following each injection, pre-weighed food was immediately returned to the food hoppers. • Note: food was weighed the morning injections were administered. • Mouse weighed • Food weighed (approx. 90 g) • Mouse injected • Pre-weighed food returned to hopper • Food Weights were measured at 30 min, 1 hr, 2 hr, and 4 hrs post injection. • Final body weights were recorded and mice were euthanized via CO2 asphyxiation.
Regarding substance P, the “feeding activity of mice in the fast refeed assay” value was “alters feeding activity”.
